Laboratory results reported in patent US7973021B2, “Immunomodulating agent in gut” (Kabushiki Kaisha Hayashibara Seibutsu Kagaku Kenkyujo, priority 2005, dated 2011).

Tests used:
Peyer's patch cells [1] = assay: Effects of saccharides on IFN-γ and IL-4 production of Peyer's patch cells in vitro (ELISA); type: cell-based, mice; conditions: saccharide 0.1 mg/ml; for Relative amount of IFN-γ / Relative amount of IL-4: 72 hours, relative to control; for IFN-γ production by stimulation of concanavalin A (in words): in vitro
Description: To investigate direct effects of various saccharides on Peyer's patch cells, the amounts of IFN-γ and IL-4 produced in Peyer's patch cells taken from mice by adding various kinds of saccharide in an in vitro experiment. After six-week-old female BALB/c mice were preliminarily grown for a week with a standard growth purified diet (AIN-93G), their Peyer's patch cells were collected according to the method of Experiment 3. The cell suspension at a concentration of 1×10^6 cells/ml was prepared with RPMI1640 medium containing 10% FCS and 10 mM HEPES and seeded in 24-well microplates by 1 ml/well. After the test saccharides (the cyclic tetrasaccharide, nigerose or isomaltose) were added in an amount of 0.1 mg/ml and lipopolysaccharide (LPS) or concanavalin A (ConA) of 2 μg/ml, they were cultured at 37° C. for 72 hours in an atmosphere of 5% carbon dioxide. The amounts of IFN-γin the supernatants were measured by the ELISA method using anti-mouse- IFN-γ antibodies (MURINE IFN-γELISA DEVELOPMENT KIT, produced by PeproTech, Inc.), and the amounts of IL-4 were measured by the ELISA method using anti-mouse-IL-4 antibodies (Mouse IL-4 ELISA DEVELOPMENT KIT, produced by Genzyme-Techne). As a control, the amounts of IFN-γ and IL-4 produced in Peyer's patch cells cultured with the medium without adding the test saccharides by the same way described above. The values in Table 5 were shown as the relative amounts (%) to control.

female BALB/c mice [2] = assay: IgA content in feces of mice fed saccharide-supplemented purified diet (ELISA); type: in vivo; conditions: for IgA content in feces: average of five mice
Description: To investigate immunomodulating effects of various saccharides, IgA contents in feces of mice administered saccharides were measured. After six-week-old female BALB/c mice were preliminarily grown for a week with AIN-93G, which is a standard growth purified diet for nutritional study using mice or rats introduced by American Institute of Nutrition in 1993, they were separated in groups of five mice each, and unlimitedly administered the test diets, which is made by supplementing 5 w/w % of the cyclic tetrasaccharide (produced in Example 2), 5 w/w % of nigerooligosaccharide (12.5 w/w % of “NISSHOKU TASTE OLIGO SYRUP”, containing 40% or more of nigerooligosaccharide on a dry solid basis, commercialized by Nihon Shokuhin Kako Co., Ltd.), or 5 w/w % of isomaltooligosaccharide (“ISOMALT 90” commercialized by Hayashibara Shoji, Inc.) to the same formula diet described above except the amount of corn starch was reduced by the relevant weight of the added test saccharide. As control, one group was administered with the standard growth purified diet (AIN-93G) without the test saccharides described above. After 1, 2, 3 and 4 weeks from the initial administration of the test or control diets, fresh feces were taken from each mouse and IgA content was measured by the ELISA method using anti-IgA antibody (MOUSE IgA ELISA QUANTITATION KIT produced by Bethyl Laboratories, Inc). The values expressed in percent in Table 1 mean the relative amounts with respect to control in each week.

female BALB/c mice [3] = assay: Analysis of cecal contents (pH, weight, IgA, IgG) of mice fed saccharide diets for 4 weeks; type: in vivo
Description: To investigate the immunomodulating effect of the various saccharides, IgA content and IgG content in the cecal contents of the mice administered saccharides were measured. After the mice fed on the purified diet containing the test saccharide or the control purified diet (AIN-93G) for 4 weeks in Experiment 1 were killed, their cecums were surgically removed. After the pH and weight of the cecum contents were measured, IgA content and IgG content in the cecal contents were measured. IgA content was measured by ELISA method using anti-IgA antibodies and IgG content was measured by ELISA method using anti-IgG antibodies (MOUSE IgG ELISA QUANTITATION KIT produced by Bethyl Laboratories, Inc) and the amounts of the antibodies per gram of the cecal contents were obtained.

female BALB/c mice [4] = assay: Amounts of organic acids in cecal contents of mice ingesting the saccharides (ion chromatography); type: in vivo
Description: To investigate the effects of the various saccharides on the enteric environment of mice, the contents of organic acids in the cecal contents were measured. After the cecal contents taken from the mice administered the purified diet containing the test saccharides or the control purified diet in Experiment 2 were suspended in an adequate amount of purified water, their supernatants collected by centrifugation were filtered with membrane (pore size of 0.45 μm). The filtrates were subjected to an ion chromatoanalyzer IC500P (produced by Yokogawa Electric Corporation) loaded with precolumn PCS5-052 and separation column SCS5-252, and eluted with 2 mM sulfuric acid (1.0 ml/min) to analyze the amounts of organic acids. The values expressed in percent in Table 4 mean the relative amounts of each organic acid in the cecal contents to those of the control mice.

Peyer's patch cells [5] = assay: IgA, IL-6 and TGF-β produced by Peyer's patch cells taken from mice administered the saccharides (ConA culture, ELISA); type: in vivo
Description: To investigate the immnomodulating effect of the various saccharides, the contents of IgA, IL-6 and TGF-βproduced by the Peyer's patch cells taken from the mice administered the saccharides. After the Peyer's patches taken from the mice administered with the purified diet containing the test saccharides or the control purified diet in Experiment 2 were cut by scissors, they were treated in 0.2 w/w % collagenase solution at 37° C. for 30 minutes. They were filtered through a cell strainer and the filtrate containing the cells were centrifuged to give the cell precipitates. They were suspended in 45 w/w % PARCOR (commercialized by Amersham, PLC), the cell suspensions were layered on 75 w/w % PARCOR and centrifuged for 10 minutes at 1,000 g. Cells floating at the interface between 45 w/w % PARCOR and 75 w/w % PARCOR were collected and suspended in RPM1164 medium containing 10% FCS and 10 mM HEPES to give the cell suspensions at a concentration of 1×10^6 cells/ml. They were seeded in 24-well microplates by 1 ml/well, added with 2 μg/m1 of concanavalin A, and cultured at 37° C. for 48 hours in atmosphere of 5% carbon dioxide. The culture supernatant was collected from each well and their IgA contents, TGF-βcontents or IL-6 contents were measured by ELISA method using anti-mouse-IgA antibody, anti-mouse-IL-6 antibody and anti-mouse-TGF-μ1 antibody, then the averages were calculated from the data of five mice. The values in Table 3 means relative amounts (%) to IgA, IL-6 or TGF-β amount produced in Peyer's patch cells taken from the control mice.

[6] = after 4 weeks on 5 w/w % saccharide diet
[7] = after 4 weeks on 5 w/w % saccharide diet, per gram of cecal contents
[8] = cecal contents, 4 weeks on 5 w/w % saccharide diet
[9] = cells from mice administered the saccharide
[10] = relative to Peyer's patch cells of control mice, 2 μg/ml concanavalin A, 48 hours, average of five mice

`OC[C@H]1O[C@@H]2OC[C@H]3O[C@H](O[C@@H]4[C@@H](O)[C@@H](OC[C@H]5O[C@H](O[C@H]([C@H]2O)[C@@H]1O)[C@H](O)[C@@H](O)[C@@H]5O)O[C@H](CO)[C@H]4O)[C@H](O)[C@@H](O)[C@@H]3O` [Cyclic tetrasaccharide, cyclo{>6)-α-D-glucopyranosyl-(1>3)-α-D -glucopyranosyl-(1>6)-α-D-glucopyranosyl-(1>3)-α-D -glucopyranosyl-(1>}] was tested, and the “Relative amount of IFN-γ” value (Peyer's patch cells [1]; ConA 2 μg/ml) was 269%, the “Relative amount of IL-4” value (Peyer's patch cells [1]; ConA 2 μg/ml) was 96% and the “Relative amount of IFN-γ” value (Peyer's patch cells [1]; LPS 2 μg/ml) was 103%. For the same compound, the “Relative amount of IL-4” value (Peyer's patch cells [1]; LPS 2 μg/ml) was 101%, the “IFN-γ production by stimulation of concanavalin A (in words)” value (from here on “IFN-γ production by stimulation”) (Peyer's patch cells [1]) was “accelerated” and the “IgA content in feces” value (female BALB/c mice [2]; First week (age in 8 weeks), 5 w/w % saccharide in AIN-93G diet) was 5.61 mg/g. For the same compound, the “IgA content in feces, relative amount with respect to control” value (from here on “IgA content in feces, relative amount”) (female BALB/c mice [2]; First week, 5 w/w % saccharide in diet) was 106%, the “IgA content in feces” value (female BALB/c mice [2]; Fourth week (age in 11 weeks), 5 w/w % saccharide in diet) was 7.09 mg/g and the “IgA content in feces, relative amount” value (female BALB/c mice [2]; Fourth week, 5 w/w % saccharide in diet) was 328%. The “IgA content in feces” value (female BALB/c mice [2]; Second week (age in 9 weeks), 5 w/w % saccharide in diet) was 8.47 mg/g, the “IgA content in feces, relative amount” value (female BALB/c mice [2]; Second week, 5 w/w % saccharide in diet) was 214% and the “IgA content in feces” value (female BALB/c mice [2]; Third week (age in 10 weeks), 5 w/w % saccharide in diet) was 7.57 mg/g. For the same compound, the “IgA content in feces, relative amount” value (female BALB/c mice [2]; Third week, 5 w/w % saccharide in diet) was 346%, the “IgA contents in feces of the mice (in words)” value (female BALB/c mice [2]; added in the purified diet) was “increased” and the “IgA contents in cecal contents (in words)” value (female BALB/c mice [3]; 4 weeks on saccharide diet) was “highest increase”. The “Weight of cecal contents” value (female BALB/c mice [3]; [6]) was 169 mg, the “pH of cecal contents” value (female BALB/c mice [3]; [6]) was 7.16 and the “IgA content in cecal contents” value (female BALB/c mice [3]; [7]) was 4.4 mg/g. For the same compound, the “IgG content in cecal contents” value (female BALB/c mice [3]; [7]) was 85 mg/g, the “Acetic acid, relative amount to control mice” value (female BALB/c mice [4]; cecal contents) was “(94%)” and the “Formic acid, relative amount to control mice” value (female BALB/c mice [4]; cecal contents) was “(258%)”. The “Isobutyric acid, relative amount to control mice” value (female BALB/c mice [4]; cecal contents) was “(70%)”, the “Isovaleric acid, relative amount to control mice” value (female BALB/c mice [4]; cecal contents) was “(73%)” and the “Lactic acid, relative amount to control mice” value (female BALB/c mice [4]; cecal contents) was “(1000%)”. The “Malic acid, relative amount to control mice” value (female BALB/c mice [4]; cecal contents) was “(179%)”, the “Propionic acid, relative amount to control mice” value (female BALB/c mice [4]; cecal contents) was “(100%)” and the “Succinic acid, relative amount to control mice” value (female BALB/c mice [4]; cecal contents) was “(267%)”. The “Total organic acids, relative amount to control mice” value (female BALB/c mice [4]; cecal contents) was “(109%)”, the “n-Butyric acid, relative amount to control mice” value (female BALB/c mice [4]; cecal contents) was “(206%)” and the “n-Valeric acid, relative amount to control mice” value (female BALB/c mice [4]; cecal contents) was “(73%)”. For the same compound, the “Amount of organic acid: Acetic acid” value (female BALB/c mice [4]; [8]) was 63 µmol/g, the “Amount of organic acid: Formic acid” value (female BALB/c mice [4]; [8]) was 0.82 µmol/g and the “Amount of organic acid: Isobutyric acid” value (female BALB/c mice [4]; [8]) was 1.9 µmol/g. The “Amount of organic acid: Isovaleric acid” value (female BALB/c mice [4]; [8]) was 2.4 µmol/g, the “Amount of organic acid: Lactic acid” value (female BALB/c mice [4]; [8]) was 4.2 µmol/g and the “Amount of organic acid: Malic acid” value (female BALB/c mice [4]; [8]) was 1.5 µmol/g. For the same compound, the “Amount of organic acid: Propionic acid” value (female BALB/c mice [4]; [8]) was 12 µmol/g, the “Amount of organic acid: Succinic acid” value (female BALB/c mice [4]; [8]) was 5.6 µmol/g and the “Amount of organic acid: Total organic acids” value (female BALB/c mice [4]; [8]) was 106 µmol/g. For the same compound, the “Amount of organic acid: n-Butyric acid” value (female BALB/c mice [4]; [8]) was 14 µmol/g, the “Amount of organic acid: n-Valeric acid” value (female BALB/c mice [4]; [8]) was 0.87 µmol/g and the “lactic acid content in cecal contents (in words)” value (female BALB/c mice [4]; mouse, in vivo) was “increased”. For the same compound, the “IgA secretion in Peyer's patch cells (in words)” value (Peyer's patch cells [5]; [9]) was “increased”, the “production of IL-6 in Peyer's patch cells (in words)” value (Peyer's patch cells [5]; [9]) was “increased” and the “production of TGF-β in Peyer's patch cells (in words)” value (Peyer's patch cells [5]; [9]) was “increased”. The “Relative IL-6 content” value (Peyer's patch cells [5]; [10]) was 326%, the “Relative IgA content” value (Peyer's patch cells [5]; [10]) was 209% and the “Relative TGF-β content” value (Peyer's patch cells [5]; [10]) was 142%.
`OC[C@H]1O[C@H](O[C@H]2[C@H](O)[C@@H](CO)OC(O)[C@@H]2O)[C@H](O)[C@@H](O)[C@@H]1O` (stereo partly shown) [Nigerose, nigerose] was tested, and the “Relative amount of IFN-γ” value (Peyer's patch cells [1]; ConA 2 μg/ml) was 63%, the “Relative amount of IL-4” value (Peyer's patch cells [1]; ConA 2 μg/ml) was 100% and the “Relative amount of IFN-γ” value (Peyer's patch cells [1]; LPS 2 μg/ml) was 104%. The “Relative amount of IL-4” value (Peyer's patch cells [1]; LPS 2 μg/ml) was 99% and the “IFN-γ production by stimulation” value (Peyer's patch cells [1]) was “suppressed”.
For `OC[C@H]1O[C@H](OC[C@H]2OC(O)[C@H](O)[C@@H](O)[C@@H]2O)[C@H](O)[C@@H](O)[C@@H]1O` (stereo partly shown) [Isomaltose, isomaltose], the “Relative amount of IFN-γ” value (Peyer's patch cells [1]; ConA 2 μg/ml) was 53%, the “Relative amount of IL-4” value (Peyer's patch cells [1]; ConA 2 μg/ml) was 100% and the “Relative amount of IFN-γ” value (Peyer's patch cells [1]; LPS 2 μg/ml) was 100%. The “Relative amount of IL-4” value (Peyer's patch cells [1]; LPS 2 μg/ml) was 97% and the “IFN-γ production by stimulation” value (Peyer's patch cells [1]) was “suppressed”.
